Results: paper PMC9814900 (Communications Chemistry, 2022)
Numbered stars: 1 amine (or outer) side, 2 acyl side, 3 side chain; on linkers, the order of the positions; unused ones are H or OH. Bridge positions count the residues as written; N and C are the ends. Peptide text beside a SMILES is read from it. * marks the point of attachment. Biotin = O=C1N[C@H]2[C@H](CS[C@H]2CCCCC(=O)*)N1; C6F4(1,4-diyl) = Fc1c(F)c([*:2])c(F)c(F)c1[*:1]; PEG4 = NCCOCCOCCOCCOCCC(=O)O

How the values were obtained:
antibody 12ca5 = conditions: stated for the epitope without method; ref not given; cited from earlier work
Source text: The epitope used for 12ca5 has the sequence […]; the previously characterized protein 14-3-3σ binder 14-3-3.6 was used for 14-3-3σ and its sequence can be found in Fig. 6b. A beta-alanine spacer was used between the library construct and the C-terminal lysine.

14-3-3σ = conditions: previously characterized binder; cited from earlier work
Source text: The epitope used for 12ca5 has the sequence […]; the previously characterized protein 14-3-3σ binder 14-3-3.6 was used for 14-3-3σ and its sequence can be found in Fig. 6b. A beta-alanine spacer was used between the library construct and the C-terminal lysine. […]

Serum stability assay = format: in vitro ADME; conditions: 10 µM peptide, 25% human serum in 1x PBS (v/v); 0 min-24 h; TCA precipitation; LC-MS EIC peak area; first-order fit; three experiments; read-out: Half-life (t1/2) in serum
Experimental: To assess the stability of stapled peptides, we performed a serum stability assay (Supplementary Fig. 6)[31],[36],[37]. Three stapled peptides were selected for assessment. […]
10 µM peptide were incubated with 25% human serum in buffer 1x PBS (v/v). At each time point (0 min, 5 min, 10 min, 30 min, 1 h, 2 h, 4 h, 8 h, 12h and 24 h), the mixture was sampled, treated with 10% trichloroacetic acid, and centrifuged at 12,000 g to remove serum proteins. The supernatant was acidified with 0.2% formic acid in water (v/v) and subjected to LC-MS analysis. The percentage of peptides (Y-axis) was calculated as the ratio of peak area in extracted ion chromatogram (EIC). Three experiments were carried out. The serum digestion curve was plotted using Prism8 software. The half-life of each peptide was calculated by fitted the digestion curve with the first order kinetic equation: ሾXሿ௧ ൌ ሾXሿ଴ ൈeି௞௧ , ሾXሿ is the remaining peptide percentage, t is the time in min. Half-life was calculated as tଵ/ଶ ൌሺln 2ሻ/k .

SUMO-25-109MDM2 [1] = molecular target: T1, SUMO-25-109MDM2 (Homo sapiens, UniProt Q00987); assay: In-solution competition assay by biolayer interferometry (BLI); format: binding; conditions: supplementary binding validation; averaged over three measurements; ~30-100 nM SUMO-25-109MDM2 as given per peptide; read-out: Averaged KD, competition BLI assay
T1 construct: the ^25-109MDM2 gene was purchased from Addgene; made in house; host or cells: E. coli Rosetta (DE3) pLysS

SUMO-25-109MDM2 [2] = molecular target: T1, SUMO-25-109MDM2; assay: Direct BLI binding assay of immobilised biotinylated peptides; conditions: biotin-PEG4-peptide on streptavidin sensor, SUMO-25-109MDM2 4-500 nM, global 1:1 fit
Experimental: 6. Supplementary Methods 4: Binding validation by bio-layer interferometry 6.1 Methods for BLI assay
In vitro binding assay was performed using ForteBio Octet RED96 BLI system (Octet RED96). In a typical experiment, the streptavidin (SA) tips were dipped in 200 µL biotinylated- peptide solution (2.0 μM in PBS with 0.02% Tween 20 and 1 mg/mL BSA) for the loading step. The loaded tips were then dipped in the sample wells for association curves. Buffer-only condition were used as reference for background subtraction. After association, the tips were dipped in blocking buffer (1x PBS, 0.02% Tween 20, 1 mg/mL BSA) to obtain dissociation curve. The association and dissociation curves were fitted by the global fitting algorithm, under binding model 1:1 to obtain the binding response value (R) in nm.
Streptavidin sensors were soaked in blocking buffer for 5 min. After immobilizing the PEG4-biotinylated peptide (100 nM of Biotin-PEG4-peptide) onto streptavidin sensors, serial dilutions of SUMO-25-109MDM2 in blocking buffer were analyzed for binding (500 nM, 250 nM, 125 nM, 63nM, 32 nM, 16 nM, 8 nM and 4 nM. The response was recorded at equilibrium after 2 min.

Molecule: YPYDVPDYA
- Kd (antibody 12ca5): 4 nM

Molecule: Cha-Cha-β-Ser-Orn-pSer-Nph-β-Ser-β-Ser-Nph [Peptide 14-3-3.6]
- Kd (14-3-3σ): 3 nM

Molecule: CC(C)C[C@H](NC(=O)[C@H](CC(N)=O)NC(=O)[C@H](Cc1c[nH]c2ccccc12)NC(=O)[C@H](Cc1ccc(O)cc1)NC(=O)[C@H](CCC(=O)O)NC(=O)[C@H](C)NC(=O)[C@H](Cc1ccccc1)NC(=O)[C@H](CO)NC(=O)[C@@H](N)[C@@H](C)O)C(=O)N[C@@H](CC(C)C)C(=O)N[C@@H](CO)C(=O)N1CCC[C@H]1C(N)=O [PMI, reference compound] (H-TSFAEYWNLLSP-NH2)
- half-life at 10 µM (Serum stability assay): 2.2 min

Molecule: CC(C)C[C@@H]1NC(=O)[C@H](C)NC(=O)[C@@H](NC(=O)[C@H](Cc2c[nH]c3ccccc23)NC(=O)[C@H](Cc2ccc(O)cc2)NC(=O)[C@H](CCC(=O)O)NC(=O)[C@H](C)NC(=O)[C@H](Cc2ccccc2)NC(=O)[C@H](CO)NC(=O)[C@H](C)N)CSc2c(F)c(F)c(c(F)c2F)SC[C@@H](C(N)=O)NC(=O)[C@H](C)NC1=O [Peptide 39] (H-ASFAEYWCALAC-NH2; linker 8-12 via C6F4(1,4-diyl))
- Kd (SUMO-25-109MDM2 [1]): 3.3 ± 2.1 nM
- half-life at 10 µM (Serum stability assay): 25 min

Molecule: CC(C)C[C@H](NC(=O)[C@H](C)NC(=O)[C@@H]1CSc2c(F)c(F)c(c(F)c2F)SC[C@H](NC(=O)[C@H](Cc2ccccc2)NC(=O)[C@H](CO)NC(=O)[C@H](C)N)C(=O)N[C@@H](CCC(=O)O)C(=O)N[C@@H](Cc2ccc(O)cc2)C(=O)N[C@@H](Cc2c[nH]c3ccccc23)C(=O)N1)C(=O)N[C@@H](C)C(=O)N[C@@H](C)C(N)=O [Peptide 36] (H-ASFCEYWCALAA-NH2; linker 4-8 via C6F4(1,4-diyl))
- Kd (SUMO-25-109MDM2 [1]): 4.4 ± 1.9 nM
- half-life at 10 µM (Serum stability assay): 26 min

Molecule: CC(C)C[C@H](NC(=O)[C@H](C)NC(=O)[C@H](C)NC(=O)[C@H](Cc1c[nH]c2ccccc12)NC(=O)[C@H](Cc1ccc(O)cc1)NC(=O)[C@H](C)NC(=O)[C@H](C)NC(=O)[C@H](Cc1ccccc1)NC(=O)[C@H](C)NC(=O)[C@H](C)N)C(=O)N[C@@H](C)C(=O)N[C@@H](C)C(=O)N[C@@H](CCCCN)C(N)=O [Peptide 34] (H-AAFAAYWAALAAK-NH2)
- half-life at 10 µM (Serum stability assay): 5.1 min

Molecule: CC(C)C[C@H](NC(=O)[C@@H]1CSc2c(F)c(F)c(c(F)c2F)SC[C@H](NC(=O)[C@H](C)NC(=O)[C@H](Cc2ccccc2)NC(=O)[C@H](CO)NC(=O)[C@H](C)N)C(=O)N[C@@H](Cc2ccc(O)cc2)C(=O)N[C@@H](Cc2c[nH]c3ccccc23)C(=O)N[C@@H](C)C(=O)N1)C(=O)N[C@@H](CO)C(=O)N[C@@H](C)C(N)=O [Peptide 38] (H-ASFACYWACLSA-NH2; linker 5-9 via C6F4(1,4-diyl))
- Kd (SUMO-25-109MDM2 [1]): 0.4 ± 0.3 nM
- half-life at 10 µM (Serum stability assay): 27 min

Molecule: CC(C)C[C@H](NC(=O)[C@H](C)NC(=O)[C@H](C)NC(=O)[C@H](Cc1c[nH]c2ccccc12)NC(=O)[C@H](Cc1ccc(O)cc1)NC(=O)[C@H](C)NC(=O)[C@H](C)NC(=O)[C@H](Cc1ccccc1)NC(=O)[C@H](C)NC(=O)[C@@H](N)[C@@H](C)O)C(=O)N[C@@H](C)C(=O)N[C@@H](C)C(=O)N[C@@H](CCCCN)C(N)=O [Peptide 32] (H-TAFAAYWAALAAK-NH2)
- half-life at 10 µM (Serum stability assay): 3.9 min

Molecule: CC(C)C[C@H](NC(=O)[C@H](C)NC(=O)[C@H](C)NC(=O)[C@H](Cc1c[nH]c2ccccc12)NC(=O)[C@H](Cc1ccc(O)cc1)NC(=O)[C@H](C)NC(=O)[C@H](C)NC(=O)[C@H](Cc1ccccc1)NC(=O)[C@H](C)NC(=O)[C@H](C)NC(=O)CCOCCOCCOCCOCCNC(=O)CCCC[C@@H]1SC[C@@H]2NC(=O)N[C@@H]21)C(=O)N[C@@H](C)C(=O)N[C@@H](C)C(=O)N[C@@H](CCCCN)C(N)=O [Peptide 34-biotin] ({Biotin-PEG4}-AAFAAYWAALAAK-NH2)
- koff (SUMO-25-109MDM2 [2]): 0.0102 s⁻¹
- kon (SUMO-25-109MDM2 [2]): 824000 M⁻¹ s⁻¹

Molecule: CC(C)C[C@H](NC(=O)[C@H](C)NC(=O)[C@H](C)NC(=O)[C@H](Cc1c[nH]c2ccccc12)NC(=O)[C@H](Cc1ccc(O)cc1)NC(=O)[C@H](C)NC(=O)[C@H](C)NC(=O)[C@H](Cc1ccccc1)NC(=O)[C@H](CO)NC(=O)[C@H](C)NC(=O)CCOCCOCCOCCOCCNC(=O)CCCC[C@@H]1SC[C@@H]2NC(=O)N[C@@H]21)C(=O)N[C@@H](C)C(=O)N[C@@H](C)C(=O)N[C@@H](CCCCN)C(N)=O [Peptide 33-biotin] ({Biotin-PEG4}-ASFAAYWAALAAK-NH2)
- koff (SUMO-25-109MDM2 [2]): 0.0107 s⁻¹
- kon (SUMO-25-109MDM2 [2]): 170000 M⁻¹ s⁻¹

Molecule: CC(C)C[C@H](NC(=O)[C@H](C)NC(=O)[C@H](C)NC(=O)[C@H](Cc1c[nH]c2ccccc12)NC(=O)[C@H](Cc1ccc(O)cc1)NC(=O)[C@H](C)NC(=O)[C@H](C)NC(=O)[C@H](Cc1ccccc1)NC(=O)[C@H](C)NC(=O)[C@@H](NC(=O)CCOCCOCCOCCOCCNC(=O)CCCC[C@@H]1SC[C@@H]2NC(=O)N[C@@H]21)[C@@H](C)O)C(=O)N[C@@H](C)C(=O)N[C@@H](C)C(=O)N[C@@H](CCCCN)C(N)=O [Peptide 32-biotin] ({Biotin-PEG4}-TAFAAYWAALAAK-NH2)
- koff (SUMO-25-109MDM2 [2]): 0.00981 s⁻¹
- kon (SUMO-25-109MDM2 [2]): 633000 M⁻¹ s⁻¹
